The source of these data is US10285983B2, “3-(1H-pyrrolo[2,3-B]pyridin-2-yl)-1H-pyrazolo[3,4-B] pyridines and therapeutic uses thereof” (Samumed, LLC, priority 2015, dated 2019).

Assay type in all cases: cell-based
Experiment [1] concerns IL-6 (THP-1 human monocyte cell line). In words: IL-6 inhibition in LPS-stimulated THP-1 cells (HTRF). The conditions noted are these: LPS 500 ng/mL; for EC50: 22 hours, IL6 HTRF; for inhibition at 10 µM: given for EC50 >10 μM, read-out: percent inhibition at 10 μM. As for the experimental part: Human monocyte cell line (THP-1 cells; Catalog # TIB-202, ATCC, Manassas, Va.) were cultured in Roswell Park Memorial Institute (RPMI) 1640 Medium (Catalog #21870-100, Buffalo, N.Y.) with 1% L-glutamine, 1% HEPES, 1% Sodium Pyruvate, 2% Sodium Bicarbonate supplemented with 100 units/mL penicillin, 50 μg/mL streptomycin, 2-mercaptoethanol (0.05 mM) [basal medium] and 10% fetal bovine serum (Catalog #16140089, Life Technologies, Carlsbad, Calif.) at 37° C. and 5% CO2.
THP-1 cells were cultured in basal media with 1% FBS for 24 hours before the start of the assay. Each compound was dissolved in DMSO as a 10 mM stock and used to prepare compound source plates. Serial dilution (1:3, 10-point dose-response curves starting from […]) and compound transfer was performed using the ECHO 550 (Labcyte, Sunnyvale, Calif.) into 384-well white low volume assay plates (Greiner Bio-One) with appropriate DMSO backfill for a final DMSO concentration of 0.1%. THP-1 cells were plated at 5000 cells/well in the 384-well plates and incubated at 37° C. for 2 h. 500 ng/mL of LPS was added after 2 hours and cells were incubated for another 22 hours at 37° C. Plates were spun in a centrifuge for 1 minute at 10,000 rpm and a mixture of anti-IL6 XL665, and anti-IL6 Cryptate diluted in reconstitution buffer (Cisbio Inc.) was added to each well. Following incubation for 3 hrs at room temperature, Homogeneous Time-Resolved Fluorescence (HTRF) was measured using the Envision (Perkin Elmer) at 665 nm and […]. The ratio of fluorescence at 665 nm to 620 nm was used as a readout for IL6 quantification. All samples were processed in duplicate. Readings were normalized to DMSO treated cells and normalized activities were utilized for EC50 calculations using the dose-response log (inhibitor) vs. response—variable slope (four parameters) nonlinear regression feature available in GraphPad Prism 5.0 (or Dotmatics). For EC50 of >10 μM, the percent inhibition at 10 μM is provided.

In experiment [2] the test system is primary human fibroblasts derived from IPF patients (LL29 cells). In words: Inhibition of fibrotic process, αSMA staining in TGF-β1 treated LL29 fibroblasts. The conditions noted are these: Fibroblast, 96 h, TGF-β1 20 ng/mL, 4 days; for EC50: % αSMA positive cells; for inhibition at 10 µM: given for EC50 >10 μM, read-out: percent inhibition at 10 μM. The text has this:
Representative compounds were screened using primary human fibroblasts (derived from IPF patients) treated with TGF-β1 to determine their ability to inhibit the fibrotic process.
Primary human fibroblasts derived from IPF patients (LL29 cells) [^1Xiaoqiu Liu, et. al., “Fibrotic Lung Fibroblasts Show Blunted Inhibition by cAMP Due to Deficient cAMP Response Element-Binding Protein Phosphorylation”, Journal of Pharmacology and Experimental Therapeutics (2005), 315(2), 678-687; ^2Watts, K. L., et. al., “RhoA signaling modulates cyclin D1 expression in human lung fibroblasts; implications for idiopathic pulmonary fibrosis”, Respiratory Research (2006), 7(1), 88] were obtained from American Type Culture Collection (ATCC) and expanded in F12 medium supplemented with 15% Fetal Bovine Serum and Penicillin/Streptomycin.
Each compound was dissolved in DMSO as a 10 mM stock and used to prepare compound source plates. Serial dilution (1:2, 11-point dose-response curves from […] to […]) and compound transfer was performed using the ECHO 550 (Labcyte, Sunnyvale, Calif.) into 384-well clear bottom assay plates (Greiner Bio-One) with appropriate DMSO backfill for a final DMSO concentration of 0.1%. LL29 cells are plated at 1,500 cells/well in 80 μL/well F12 medium supplemented with 1% Fetal Bovine Serum. One hour after addition of the cells, TGF-β1 (Peprotech; 20 ng/mL) was added to the plates to induce fibrosis (ref. 1 and 2 above). Wells treated with TGF-β1 and containing DMSO were used as controls. Cells were incubated at 37° C. and 5% CO2 for 4 days. Following incubation for 4 days, SYTOX green nucleic acid stain (Life Technologies [Thermo Fisher Scientific]) was added to the wells at a final concentration of 1 μM and incubated at room temperature for 30 min. Cells were then fixed using 4% formaldehyde (Electron Microscopy Sciences), washed 3 times with PBS followed by blocking and permeabilization using 3% Bovine Serum Albumin (BSA; Sigma) and 0.3% Triton X-100 (Sigma) in PBS. Cells were then stained with antibody specific to α-smooth muscle actin (αSMA; Abcam) (ref. 1 and 2 above) in 3% Bovine Serum Albumin (BSA; Sigma) and 0.3% Triton X-100 (Sigma) in PBS, and incubated overnight at 4° C. Cells were then washed 3 times with PBS, followed by incubation with Alexa Flor-647 conjugated secondary antibody (Life Technologies [Thermo Fisher Scientific]) and DAPI at room temperature for 1 hour. Cells were then washed 3 times with PBS and plates were sealed for imaging. αSMA staining was imaged by excitation at 630 nm and emission at 665 nm and quantified using the Compartmental Analysis program on the CellInsight CX5 (Thermo Scientific). Dead or apoptotic cells were excluded from analysis based on positive SYTOX green staining. % of total cells positive for αSMA were counted in each well and normalized to the average of 11 wells treated with TGF-β1 on the same plate using Dotmatics' Studies Software. The normalized averages (fold change over untreated) of 3 replicate wells for each compound concentration were used to create dose-responses curves and EC50 values were calculated using non-linear regression curve fit in the Dotmatics' Studies Software. For EC50 of >10 μM, the percent inhibition at 10 μM is provided.

The subject of a further experiment is SW480 colon cancer cells. Briefly: Cell viability assay (CellTiter-Blue). Particulars: Homo sapiens, 96 h, four days; for inhibition at 10 µM: given for EC50 >10 μM, read-out: percent inhibition at 10 μM. As for the experimental part: Representative compounds were screened using the following assay procedure to assess the effect on cell viability as described below.
Each compound was dissolved in DMSO as a 10 mM stock and used to prepare compound source plates. Serial dilution (1:3, 8-point dose-response curves from 10 μM to 0.0045 μM) and compound transfer was performed using the ECHO 550 (Labcyte, Sunnyvale, Calif.) into 96-well clear bottom, black-walled plates (Corning-Costar).
Approximately 2×10^3 SW480 colon cancer cells were seeded into each well and allowed to incubate in the presence or absence of compound for four days at 37° C./5% CO2. Eight replicates of DMSO-treated cells served as controls and cells treated with compound were performed in duplicate.
After incubation, 20 μL of CellTiter-Blue (Promega) was added to each well allowed to incubate for approximately 3 hours. This reagent was a buffered solution which contains resazurin, metabolically active cells were able to reduce rezarurin (blue) into resorufin (pink) which was highly fluorescent. This measured fluorescence was used as a readout for cell viability.
After incubation, the plates were read at Ex 560 nm Em 590 nm (Cytation 3, BioTek). Dose-response curves were generated and EC50 concentration values were calculated using non-linear regression curve fit in the GraphPad Prism (San Diego, Calif.) or Dotmatics' Studies Software (Bishops Stortford, UK). For EC50 of >10 μM, the percent inhibition at 10 μM is provided.
(In general: Alamar Blue is a resazurin reagent that responds to reducing activity.)

As to `CCC(=O)Nc1cncc(-c2cnc3[nH]nc(-c4cc5c(-c6cccc(F)c6)ccnc5[nH]4)c3c2)c1` [Compound 1, N-(5-(3-(4-(3-Fluorophenyl)-1H-pyrrolo[2,3-b]pyridin-2-yl)-1H-pyrazolo [3,4-b]pyridin-5-yl)pyridin-3-yl)propionamide], the 50% effective concentration (EC50) (in experiment [1]; in experiment [2]; in the experiment on SW480 colon cancer cells) was more than 10 µM throughout. Moreover, the inhibition (as a rule, how much of the control response was suppressed) at 10 µM came to 23.8% in experiment [1], 0% in experiment [2] and 9.8% with SW480 colon cancer cells.

As for `Fc1cccc(-c2ccnc3[nH]c(-c4n[nH]c5ncc(-c6cccnc6)cc45)cc23)c1` [Compound 4, 3-(4-(3-Fluorophenyl)-1H-pyrrolo[2,3-b]pyridin-2-yl)-5-(pyridin-3-yl)-1H-pyrazolo[3,4-b]pyridine], the concentration for a half-maximal effect (EC50) (as a rule, the concentration needed to bring the measured effect to its halfway point) was more than 10 µM in experiment [1], 2.72 µM in experiment [2] and more than 10 µM with SW480 colon cancer cells. Besides, the inhibition at 10 µM came out at 22.6% in experiment [1] and 17.5% in the experiment with SW480 colon cancer cells.

With `O=C(Nc1cncc(-c2cnc3[nH]nc(-c4cc5c(-c6cccc(F)c6)ccnc5[nH]4)c3c2)c1)c1ccccc1` [Compound 11, N-(5-(3-(4-(3-Fluorophenyl)-1H-pyrrolo[2,3-b]pyridin-2-yl)-1H-pyrazolo [3,4-b]pyridin-5-yl)pyridin-3-yl)benzamide], the results for the 50% effective concentration (EC50) (in experiment [1]; in experiment [2]; with SW480 colon cancer cells) were more than 10 µM, 0.32 µM and 0.643 µM, respectively. Besides, the inhibition at 10 µM in experiment [1] came out at 14.1%.

Take `CN(C)Cc1cncc(-c2cnc3[nH]nc(-c4cc5c(-c6cccc(F)c6)ccnc5[nH]4)c3c2)c1` [Compound 13, 1-(5-(3-(4-(3-Fluorophenyl)-1H-pyrrolo[2,3-b]pyridin-2-yl)-1H-pyrazolo [3,4-b]pyridin-5-yl)pyridin-3-yl)-N,N-dimethylmethanamine]: the EC50 (in experiment [1]; in experiment [2]; with SW480 colon cancer cells) was more than 10 µM throughout. Moreover, the inhibition at 10 µM in experiment [1] stood at 27.5%; in experiment [2], 5.2%; in the experiment with SW480 colon cancer cells, 11.6%.

Take `Fc1cccc(-c2ccnc3[nH]c(-c4n[nH]c5ncc(-c6ccncc6)cc45)cc23)c1` [Compound 18, 3-(4-(3-Fluorophenyl)-1H-pyrrolo[2,3-b]pyridin-2-yl)-5-(pyridin-4-yl)-1H-pyrazolo[3,4-b]pyridine]: the EC50 in experiment [1] is more than 10 µM; in experiment [2], 1.45 µM; in the experiment on SW480 colon cancer cells, more than 10 µM. Further, the inhibition at 10 µM in experiment [1] is 37.2%; in the experiment on SW480 colon cancer cells, 23.2%.

On to `O=C(Nc1cncc(-c2cnc3[nH]nc(-c4cc5c(-c6cccc(F)c6)ccnc5[nH]4)c3c2)c1)C1CC1` [Compound 20, N-(5-(3-(4-(3-Fluorophenyl)-1H-pyrrolo[2,3-b]pyridin-2-yl)-1H-pyrazolo [3,4-b]pyridin-5-yl)pyridin-3-yl)cyclopropanecarboxamide], for which the figures for the concentration giving a half-maximal response (EC50) (in experiment [1]; in experiment [2]; with SW480 colon cancer cells) were 2.13 µM, 2.63 µM and more than 10 µM, respectively. Further, the inhibition at 10 µM in the experiment on SW480 colon cancer cells is 51.4%.

`Fc1cccc(-c2ccnc3[nH]c(-c4n[nH]c5ncc(-c6ccccn6)cc45)cc23)c1` [Compound 28, 3-(4-(3-Fluorophenyl)-1H-pyrrolo[2,3-b]pyridin-2-yl)-5-(pyridin-2-yl)-1H-pyrazolo[3,4-b]pyridine]: the EC50 (in experiment [1]; in experiment [2]; in the experiment with SW480 colon cancer cells) was more than 10 µM each time. In addition, the inhibition at 10 µM in experiment [1] turned out to be 49.5%; in experiment [2], 52%; in the experiment with SW480 colon cancer cells, 16.3%.

As for `CC(C)CC(=O)Nc1cncc(-c2cnc3[nH]nc(-c4cc5c(-c6ccc(F)cc6)ccnc5[nH]4)c3c2)c1` [Compound 30, N-(5-(3-(4-(4-Fluorophenyl)-1H-pyrrolo[2,3-b]pyridin-2-yl)-1H-pyrazolo [3,4-b]pyridin-5-yl)pyridin-3-yl)-3-methylbutanamide], the EC50 (in experiment [1]; in experiment [2]; with SW480 colon cancer cells) was more than 10 µM each time. In addition, the inhibition at 10 µM stood at 0% in experiment [1], 12.8% in experiment [2] and 18.5% with SW480 colon cancer cells.

On to `Cc1ccncc1-c1cnc2[nH]nc(-c3cc4c(-c5ccc(F)cc5)ccnc4[nH]3)c2c1` [Compound 33, 3-(4-(4-Fluorophenyl)-1H-pyrrolo[2,3-b]pyridin-2-yl)-5-(4-methylpyridin-3-yl)-1H-pyrazolo[3,4-b]pyridine], for which the EC50 in experiment [1] was more than 10 µM; in experiment [2] it was 4.51 µM; in the experiment on SW480 colon cancer cells, more than 10 µM. Besides, the figures for the inhibition at 10 µM (in experiment [1]; in the experiment with SW480 colon cancer cells) were 27.7% and 25%, respectively.

On to `Fc1ccc(-c2ccnc3[nH]c(-c4n[nH]c5ncc(-c6cncc(CN7CCCC7)c6)cc45)cc23)cc1` [Compound 42, 3-(4-(4-Fluorophenyl)-1H-pyrrolo[2,3-b]pyridin-2-yl)-5-(5-(pyrrolidin-1-ylmethyl)pyridin-3-yl)-1H-pyrazolo[3,4-b]pyridine], for which the EC50 in experiment [1] is more than 10 µM; in experiment [2], 4.98 µM; in the experiment with SW480 colon cancer cells, more than 10 µM. The inhibition at 10 µM in experiment [1] is 36.8%; in the experiment with SW480 colon cancer cells, 24.8%.
